Assays:
[1] = dissolving times of different carrier materials; assay type: physicochemical; details: 10 g in 100 ml water of 17° C., stirred at 500 rpm, visual
Method: Testing conditions: 10 g of each carrier material was added to 100 ml water of 17° C. in a 400 ml beaker and stirred at 500 rpm by a magnetic stirrer. Dissolution was determined visually.

bulk density = assay type: physicochemical; details: for bulk density (g/100 ml): Table 1, preferred carrier materials; for Bulk density in g/100 ml: Table 3, carrier materials
[2] = listed as mannitol (fine granulated)

| Structure (SMILES) | Dissolving time [1] | bulk density (g/100 ml) (bulk density) | Bulk density in g/100 ml (bulk density) | Dissolving time [1, 2] | Bulk density in g/100 ml (bulk density; [2]) |
| --- | --- | --- | --- | --- | --- |
| OC[C@@H](O)[C@@H](O)[C@H](O)[C@H](O)CO [mannitol (spray dried), mannitol] | 55 s | 45 g/100 ml | 45 g/100 ml |  |  |
| OC[C@@H](O)[C@@H](O)[C@H](O)[C@H](O)CO [mannitol] |  | 63 g/100 ml |  | 95 s | 62 g/100 ml |
| O.O=P([O-])(O)O.O=P([O-])(O)O.[Ca+2] [monocalcium phosphate.H2O] |  | 82 g/100 ml |  |  |  |
| OC[C@@H](O)[C@@H](O)[C@H](O)[C@@H](O)CO [sorbitol (spray dried), sorbitol] | 50 s | 45 g/100 ml | 45 g/100 ml |  |  |
| OC[C@@H](O)[C@@H](O)[C@H](O)[C@@H](O)CO [sorbitol] | 90 s | 58 g/100 ml | 58 g/100 ml |  |  |
| O.O.O=C([O-])CC(O)(CC(=O)[O-])C(=O)[O-].[Na+].[Na+].[Na+] [trisodiumcitrate.2H2O] | 85 s | 95 g/100 ml | 95 g/100 ml |  |  |

Results, then the compound that gave them:

| Dissolving time [1] | bulk density (g/100 ml) (bulk density) | Bulk density in g/100 ml (bulk density) | Dissolving time [1, 2] | Bulk density in g/100 ml (bulk density; [2]) | Structure (SMILES) |
| --- | --- | --- | --- | --- | --- |
| 200 s | 90 g/100 ml | 90 g/100 ml |  |  | OC[C@@H](O)[C@@H](O[C@H]1O[C@H](CO)[C@@H](O)[C@H](O)[C@H]1O)[C@H](O)[C@@H](O)CO [hydrogenated maltose] |
| 15 s | 50 g/100 ml | 45 g/100 ml |  |  | OC[C@H]1O[C@@](CO)(O[C@H]2O[C@H](CO)[C@@H](O)[C@H](O)[C@H]2O)[C@@H](O)[C@@H]1O [instant sugar] |
| 120 s | 69 g/100 ml | 69 g/100 ml |  |  | OC[C@H]1O[C@@H](O[C@H]2[C@H](O)[C@@H](O)C(O)O[C@@H]2CO)[C@H](O)[C@@H](O)[C@H]1O (stereo partly drawn) [lactose] |
|  | 88 g/100 ml |  |  |  | OC[C@H]1O[C@@](CO)(O[C@H]2O[C@H](CO)[C@@H](O)[C@H](O)[C@H]2O)[C@@H](O)[C@@H]1O [saccharose (coarse grain), saccharose] |
|  | 81 g/100 ml |  |  |  | OC[C@H]1O[C@@](CO)(O[C@H]2O[C@H](CO)[C@@H](O)[C@H](O)[C@H]2O)[C@@H](O)[C@@H]1O [saccharose (fine grain), saccharose] |

From patent publication US6645529B2, “Instant granules and process for their formulation” (Dr. Gergely & Co., priority 2000, dated 2003)
